{
  "source": "PubChem BioAssay AID624394",
  "about": "(The Scripps Research Institute Molecular Screening Center, 2012)",
  "molecular_target": "Photoreceptor-specific nuclear receptor (Homo sapiens) (UniProt Q9Y5X4)",
  "sequence (Q9Y5X4 whole entry, looked up)": "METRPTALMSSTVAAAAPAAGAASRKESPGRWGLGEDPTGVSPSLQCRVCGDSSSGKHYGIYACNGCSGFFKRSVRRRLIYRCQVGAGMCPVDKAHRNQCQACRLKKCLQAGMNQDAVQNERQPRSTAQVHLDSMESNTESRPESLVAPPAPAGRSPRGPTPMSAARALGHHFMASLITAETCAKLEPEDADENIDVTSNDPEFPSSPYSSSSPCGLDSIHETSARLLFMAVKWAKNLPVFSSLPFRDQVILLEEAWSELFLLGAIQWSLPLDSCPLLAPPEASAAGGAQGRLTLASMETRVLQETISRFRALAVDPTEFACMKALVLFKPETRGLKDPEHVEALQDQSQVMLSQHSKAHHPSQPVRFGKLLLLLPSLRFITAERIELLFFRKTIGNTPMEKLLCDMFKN",
  "assay": "concentration-response of NR2E3 activators – cell-based, luminescence, luciferase reporter, dose response (AID 624394)",
  "data": [
    {"smiles": "CCOP(=O)(CCP(=O)(OCC)OCC)OCC.C[CH2][Sn]([Cl])([Cl])[CH2]C", "values": [
      {"measurement": "IC50", "value": 0.478, "unit": "µM"}
    ]}
  ]
}
